Assay results published in patent publication US20230124862A1, “BISMUTH THIOL COMPOUNDS AND COMPOSITIONS AND METHODS OF TREATING MICROBIAL CO-INFECTIONS” (Microbion Corporation, priority 2020, published 2023).

Experiment: Particle size distribution of BisEDT samples vs processing conditions
Type: physicochemical
[1] = particle size distribution of BisEDT samples

Structure (SMILES)	D(10) (crystalline BisEDT samples)	D(50) (crystalline BisEDT samples)	D(90) (crystalline BisEDT samples)	D[4, 3] (crystalline BisEDT samples)	D(10) [1]	D(50) [1]	D(90) [1]	D[4, 3] [1]
C1C[S][Bi]([S]CC[S][Bi]2[S]CC[S]2)[S]1 [Sample 7]	0.39 μm	1.3 μm	1.6 μm	1.4 μm	0.39 μm	1.3 μm	1.6 μm	1.4 μm
C1C[S][Bi]([S]CC[S][Bi]2[S]CC[S]2)[S]1 [Sample 8]	0.36 μm	1.0 μm	1.8 μm	1.0 μm	0.36 μm	1.0 μm	1.8 μm	1.0 μm
C1C[S][Bi]([S]CC[S][Bi]2[S]CC[S]2)[S]1 [Sample 9]	0.67 μm	1.0 μm	1.9 μm	1.1 μm	0.67 μm	1.0 μm	1.9 μm	1.1 μm
C1C[S][Bi]([S]CC[S][Bi]2[S]CC[S]2)[S]1 [Sample 10]	0.36 μm	0.88 μm	1.7 μm	0.97 μm	0.36 μm	0.88 μm	1.7 μm	0.97 μm
C1C[S][Bi]([S]CC[S][Bi]2[S]CC[S]2)[S]1 [Sample 11]	0.38 μm	1.2 μm	2.4 μm	1.4 μm	0.38 μm	1.2 μm	2.4 μm	1.4 μm
C1C[S][Bi]([S]CC[S][Bi]2[S]CC[S]2)[S]1 [Sample 12]	0.37 μm	1.2 μm	2.4 μm	1.3 μm	0.37 μm	1.2 μm	2.4 μm	1.3 μm
C1C[S][Bi]([S]CC[S][Bi]2[S]CC[S]2)[S]1 [Sample 13]	0.36 μm	0.98 μm	2.1 μm	1.2 μm	0.36 μm	0.98 μm	2.1 μm	1.2 μm
C1C[S][Bi]([S]CC[S][Bi]2[S]CC[S]2)[S]1 [Sample 14]	0.36 μm	1.0 μm	2.1 μm	1.2 μm	0.36 μm	1.0 μm	2.1 μm	1.2 μm
C1C[S][Bi]([S]CC[S][Bi]2[S]CC[S]2)[S]1 [Sample 15]	0.32 μm	0.72 μm	1.6 μm	0.86 μm	0.32 μm	0.72 μm	1.6 μm	0.86 μm
